In patent US5919761A, “Peptides for heparin and low molecular weight heparin anticoagulation reversal” (The Board of Regents of the University of Michigan, priority 1995, dated 1999):
Values joined by “and” are separate entries in the source; they are usually repeats but may differ in a detail not shown here. Equal entries are not always repeated. Peptide text beside a SMILES is read from it.

Assays:
LMWH (Enoxaparin) = test: Factor Xa and IIa reversal after LMWH Enoxaparin, canine study; type: in vivo; details: dogs, 3 min
Procedure: Similar studies were conducted to assess the ability of the protamine-like peptide analogs described in this section to reverse the anticoagulation effects of the LMWH, Enoxaparin. FIG. 5a through FIG. 5d are graphical representations of LMWH anticoagulation activities achieved by n-protamine (Protamine [+21]), and compounds [+18BE], [+18KDEL], and [+18RGD] plotted as a percent of reversal against time in minutes. […] Referring to FIG. 5c, compound [+18RGD] dramatically outperforms n-protamine in reversing the heparin antifactor Xa activity of Enoxaparin.

[1] = test system: standard, unfractionated heparin; test: Factor Xa and IIa reversal after standard heparin, cell adhesion ligand analogs, canine study; type: in vivo; details: dogs, 3 min post administration
Procedure: Anticoagulation reversal was assessed by a number of standard coagulation tests performed upon samples of venous blood in the manner described hereinabove. Measurements were made 3 minutes prior to heparin reversal (baseline) and 3 minutes, 10 minutes, and 30 minutes post-administration of the heparin reversal agent. […] Referring to FIGS. 4a through 4d, compound [+18RGD] performs as well, or better, than n-protamine in the standard coagulation tests performed in these studies.

[2] = Maximum hemodynamic changes and total toxicity score after standard heparin reversal, cell adhesion ligand analogs, canine study; details: dogs, agent over 10 seconds; for Maximum hemodynamic change, Mean BP: standard heparin 150 IU/kg IV; for Maximum hemodynamic change, Mean BP / Maximum hemodynamic change, CO / Maximum hemodynamic change, HR / Maximum hemodynamic change, VO2: 5 minutes; for Maximum hemodynamic change, CO / Maximum hemodynamic change, HR / Maximum hemodynamic change, VO2: standard heparin; for Total Toxicity Score: standard unfractionated heparin
Procedure: In these studies, the anticoagulation-reversing agents were administered over a 10 second interval to maximize the hemodynamic effects.
Hemodynamic studies were conducted by measuring mean blood pressure (Mean BP) in mm Mercury, maximum percent changes in cardiac output (CO) and systemic oxygen consumption (VO2), and heart rate (HR) in beats per minute. Measurements and calculations were made at baseline, before administration of standard, unfractionated heparin, 3 minutes before reversal, every 30 seconds for 5 minutes after reversal.
Total toxicity scores (TTS) were developed in accordance with the method described hereinabove that reflected maximum declines in each of four parameters (MAP, CO, VO2 and HR) over the first 5 minutes after reversal.

[3] = Maximum hemodynamic changes and total toxicity score after Enoxaparin reversal, canine study; details: dogs, agent over 10 seconds; for Maximum hemodynamic change, Mean BP: Enoxaparin 100 IU/kg; for Maximum hemodynamic change, Mean BP / Maximum hemodynamic change, CO / Maximum hemodynamic change, HR / Maximum hemodynamic change, VO2: 5 minutes; for Total Toxicity Score (TTS) / Maximum hemodynamic change, CO / Maximum hemodynamic change, HR / Maximum hemodynamic change, VO2: Enoxaparin
Procedure: (§1) Seven female dogs (mean weight 15-20 kg) received intravenous standard, unfractionated heparin (150 IU/kg IV) or LMWH (Enoxaparin, Rhone-Poulac, France; 100 IU/kg factor Xa activity) followed by reversal with commercial salmine protamine (n-protamine purchased from Eli Lilly, Indianapolis, Ind., 1.5 mg/kg (100 IU/mg) IV) or an anticoagulation-reversing agent which is a protamine-like peptide variant identified hereinbelow. In these studies, the anticoagulation-reversing agents were administered over a 10 second interval to maximize the hemodynamic effects.

[4] = Percent change in platelet count after standard heparin reversal, cell adhesion ligand analogs, canine study; type: in vivo; details: dogs, agent over 10 seconds
Procedure: In addition to hemodynamic changes, Table 15 lists the percent change in platelet count following administration of n-protamine and the selected variants, as well as the factor Xa and factor IIa reversal, as a percent change at 3 minutes post administration of the compound.

[5] = Percent change in platelet count after Enoxaparin reversal, canine study; type: in vivo; details: dogs, agent over 10 seconds
Procedure: as §1

[6] = Hemodynamic studies and total toxicity score after standard heparin reversal, canine study; details: dogs
Procedure: As used hereinafter, the peptides will be identified by their total cationic charge value, e.g., [+8], [+16], etc.
Hemodynamic studies were conducted by measuring mean arterial pressure (MAP), heart rate (HR), and maximum percent changes in cardiac output (CO) and systemic oxygen consumption (VO2).
Total toxicity scores (TTS) were developed that reflected maximum declines in each of four parameters (MAP, CO, VO2 and HR) over the first 5 minutes after reversal, the latter being the time of expected greatest adverse hemodynamic effect. The maximum changes occurring in an individual dog over the first 5 minutes were divided by the standard deviation derived from the entire group of tested animals and the four scores were added, resulting in a TTS for each individual dog. The TTS values for each dog were then summed to obtain an average TTS and SD for each peptide studied.

[7] = test system: standard, unfractionated heparin; test: Percent reversal of standard heparin anticoagulation by variant peptides and protamine, in vivo canine study, coagulation tests; design: species or system dogs; details: for Percent reversal of heparin anticoagulation, ACT: heparin 150 IU/kg IV, agent 1.5 mg/kg IV over 10 seconds
Procedure: Data are expressed as a mean ±1 SD. Statistical analysis using linear regression for determination of correlation coefficients, and analysis of variance (ANOVA) or unpaired two-way Student's t-test; p<0.05 was accepted as statistically significant.
Anticoagulation reversal was assessed by a number of standard coagulation tests performed upon samples of venous blood: activated clotting time (ACT), prothrombin time (PT), activated partial thromboplastin time (aPTT), thrombin clotting time (TCT), heparin concentration by assay for FXa inhibitory activity (FXa), white cell count (WBC), and platelet counts (PLT). Measurements were made 3 minutes prior to heparin reversal (baseline) and 3 minutes and 30 minutes post-administration of the heparin reversal agent. The "Heparin" row sets forth the observed reversal as a consequence of expected heparin metabolism or degradation alone.

For `CC(=O)N[C@@H](CCC(=O)O)C(=O)N[C@@H](C)C(=O)N[C@@H](CCCNC(=N)N)C(=O)N[C@@H](CCCNC(=N)N)C(=O)N[C@@H](C)C(=O)N[C@@H](C)C(=O)N[C@@H](CCCNC(=N)N)C(=O)N[C@@H](CCCNC(=N)N)C(=O)N[C@@H](C)C(=O)N[C@@H](CCCNC(=N)N)C(=O)N[C@@H](CCCNC(=N)N)C(=O)N[C@@H](C)C(=O)N[C@@H](C)C(=O)N[C@@H](CCCNC(=N)N)C(=O)N[C@@H](CCCNC(=N)N)C(=O)N[C@@H](C)C(=O)N[C@@H](CCCNC(=N)N)C(=O)N[C@@H](CCCNC(=N)N)C(=O)N[C@@H](C)C(=O)N[C@@H](C)C(=O)N[C@@H](CCCNC(=N)N)C(=O)N[C@@H](CCCNC(=N)N)C(=O)N[C@@H](C)C(=O)N[C@@H](CCCNC(=N)N)C(=O)N[C@@H](CCCNC(=N)N)C(=O)N[C@@H](C)C(=O)N[C@@H](C)C(=O)N[C@@H](CCCNC(=N)N)C(=O)N[C@@H](CCCNC(=N)N)C(=O)N[C@@H](C)C(=O)N[C@@H](CCCNC(=N)N)C(=O)N[C@@H](CCCNC(=N)N)C(=O)NCC(=O)N[C@H](C(=O)N[C@@H](CCCCN)C(=O)N[C@@H](CC(=O)O)C(=O)N[C@@H](CCC(=O)O)C(=O)N[C@@H](CC(C)C)C(=O)O)C(C)C` [[+18KDEL], acetyl-EA(R2 A2 R2 A)4 R2 GVKDEL] (Ac-EARRAARRARRAARRARRAARRARRAARRARRGVKDEL-OH), the “IIa Reversal” value (LMWH (Enoxaparin)) was 98%, the “Xa Reversal” value (LMWH (Enoxaparin)) was 48% and the “IIa Reversal” value [1] was 94%. The “Xa Reversal” value [1] was 97%, the “Maximum hemodynamic change, Mean BP” value [2] was -5 mm Mercury and the “Maximum hemodynamic change, CO” value [2] was -12%. For the same compound, the “Maximum hemodynamic change, HR” value [2] was -14 beats/min, the “Maximum hemodynamic change, VO2” value [2] was -6% and the “Total Toxicity Score” value [2] was -3.53 ± 1.65. The “Maximum hemodynamic change, Mean BP” value [3] was -6 mm Mercury, the “Total Toxicity Score (TTS)” value [3] was -5.00 and -5.0 ± 3.44 and the “Maximum hemodynamic change, CO” value [3] was -14%. For the same compound, the “Maximum hemodynamic change, HR” value [3] was -11 beats/min, the “Maximum hemodynamic change, VO2” value [3] was -10% and the “Platelet (percent change in platelet count)” value [4] was -24%. The “Platelet (percent change in platelet count)” value [5] was -40%.
In the case of `CC(=O)N[C@@H](CCC(=O)O)C(=O)N[C@@H](C)C(=O)N[C@@H](CCCNC(=N)N)C(=O)N[C@@H](CCCNC(=N)N)C(=O)N[C@@H](C)C(=O)N[C@@H](C)C(=O)N[C@@H](CCCNC(=N)N)C(=O)N[C@@H](CCCNC(=N)N)C(=O)N[C@@H](C)C(=O)N[C@@H](CCCNC(=N)N)C(=O)N[C@@H](CCCNC(=N)N)C(=O)N[C@@H](C)C(=O)N[C@@H](C)C(=O)N[C@@H](CCCNC(=N)N)C(=O)N[C@@H](CCCNC(=N)N)C(=O)N[C@@H](C)C(=O)N[C@@H](CCCNC(=N)N)C(=O)N[C@@H](CCCNC(=N)N)C(=O)N[C@@H](C)C(=O)N[C@@H](C)C(=O)N[C@@H](CCCNC(=N)N)C(=O)N[C@@H](CCCNC(=N)N)C(=O)N[C@@H](C)C(=O)N[C@@H](CCCNC(=N)N)C(=O)N[C@@H](CCCNC(=N)N)C(=O)N[C@@H](C)C(=O)N[C@@H](C)C(=O)N[C@@H](CCCNC(=N)N)C(=O)N[C@@H](CCCNC(=N)N)C(=O)N[C@@H](C)C(=O)N[C@@H](CCCNC(=N)N)C(=O)N[C@@H](CCCNC(=N)N)C(=O)NCC(=O)N[C@@H](CCCNC(=N)N)C(=O)NCC(=O)N[C@@H](CC(=O)O)C(=O)N[C@@H](CO)C(=O)N1CCC[C@H]1C(=O)N[C@@H](C)C(N)=O` [[+18RGD], acetyl-EA--(R2 A2 R2 A)4 R2 GRGDSPA-amide] (Ac-EARRAARRARRAARRARRAARRARRAARRARRGRGDSPA-NH2), the “IIa Reversal” value (LMWH (Enoxaparin)) is reported as 100%, the “Xa Reversal” value (LMWH (Enoxaparin)) is reported as 72% and the “IIa Reversal” value [1] is reported as 100%. For the same compound, the “Xa Reversal” value [1] was 100%, the “Maximum hemodynamic change, Mean BP” value [2] was -2 mm Mercury and the “Maximum hemodynamic change, CO” value [2] was -3%. The “Maximum hemodynamic change, HR” value [2] was -3 beats/min, the “Maximum hemodynamic change, VO2” value [2] was -4% and the “Total Toxicity Score” value [2] was -1.43 ± 0.61. For the same compound, the “Maximum hemodynamic change, Mean BP” value [3] was -1 mm Mercury, the “Total Toxicity Score (TTS)” value [3] was -2.68 and -2.68 ± 0.88 and the “Maximum hemodynamic change, CO” value [3] was -3%. For the same compound, the “Maximum hemodynamic change, HR” value [3] was -3 beats/min, the “Maximum hemodynamic change, VO2” value [3] was -7% and the “Platelet (percent change in platelet count)” value [4] was -27%. For the same compound, the “Platelet (percent change in platelet count)” value [5] was -31%.
With P(K2 O2 G4)3 K2 O2 [[+8]] the ΔHR [6] was -9, the ΔMAP ([6]; average maximum decline in first five minutes after peptide administration) was -1 and the “average total toxicity score (TTS±SD)” value ([6]; first 5 minutes after reversal, more negative = more toxic) was -1.9±1.1. For the same compound, the ΔCO ([6]; maximum percent change) was -8%, the ΔVO2 ([6]; maximum percent change) was -8% and the “in vivo heparin reversal (summary)” value ([7]; dogs, standard heparin) was “not capable of effect heparin reversal”. The “Percent reversal of heparin anticoagulation, ACT” value ([7]; dogs, 3 min post-administration) was 7%, the “Percent reversal of heparin anticoagulation, ACT” value ([7]; dogs, 30 min) was 37% and the “Percent reversal of heparin anticoagulation, APTT” value ([7]; same study, 3 min) was 0%. For the same compound, the “Percent reversal of heparin anticoagulation, FNa” value ([7]; same study, 3 min) was 8%, the “Percent reversal of heparin anticoagulation, FXa” value ([7]; same study, 3 min) was -1% and the “Percent reversal of heparin anticoagulation, PT” value ([7]; same study, 3 min) was 21%. The “Percent reversal of heparin anticoagulation, TCT” value ([7]; same study, 3 min) was 0%, the “Percent reversal of heparin anticoagulation, APTT” value ([7]; same study, 30 min) was 50% and the “Percent reversal of heparin anticoagulation, FXa” value ([7]; same study, 30 min) was 9%. The “Percent reversal of heparin anticoagulation, PT” value ([7]; same study, 30 min) was 50% and the “Percent reversal of heparin anticoagulation, TCT” value ([7]; same study, 30 min) was 0%.
